Literature values in article PMC6105163, “Abaloparatide Exerts Bone Anabolic Effects with Less Stimulation of Bone Resorption-Related Factors: A Comparison with Teriparatide” (Calcified Tissue International, 2018).

Experiments:
[1] = system: patients with osteoporosis; details: cited from earlier work
cAMP and PKC = details: ref [24]; cited from earlier work
Excerpt: There is another possibility that the two peptides could show the different activity on protein kinase C (PKC). PKC is the downstream signal of PTH1R and is involved in the stimulation of bone resorption-related factors and bone catabolism. In fact, ostabolin, an amidated form of human PTH(1–31), differs from PTH(1–34) in PKC activation.

osteoporosis = details: cited from earlier work
Excerpt: In fact, teriparatide (TPTD), the N-terminal 34 amino acids fragment of PTH, is currently the only bone anabolic agent used for the treatment of osteoporosis, by daily or weekly subcutaneous administration.

osteoblasts = details: cited from earlier work
Excerpt: The mechanism of action of TPTD on bone turnover is not fully understood; however, many studies have examined the molecular mechanisms in recent decades. According to a previous study, PTH(1–34) acts on osteoblasts and indirectly induces bone resorption by activating osteoclasts. PTH(1–34) increases the expression of receptor activator of nuclear factor kappa-B ligand (RANKL) and macrophage colony-stimulating factor (M-CSF) and decreases the expression of osteoprotegerin (OPG), a decoy receptor of RANKL [9]. These effects of PTH(1–34) further promote the maturation of osteoclasts with ... || We next investigated the effect of ABL on bone formation in SaOS-2. In the previous study, bone formation related to PTH1R signaling was enhanced by the intermittent treatment of TPTD in osteoblasts. This anabolic effect of intermittent TPTD treatment was mediated by IGF-1, which promoted the differentiation and mineralization of osteoblasts. We therefore evaluated the effects on IGF-1 and osteocalcin, a marker gene for differentiated osteoblasts, with a repeating 6-h exposure cycle of ABL and TPTD in SaOS-2 (Fig. 3a). As expected, ABL as well as TPTD increased the gene expressio ...

[2] = subcutaneous injection, ref [14]

Substance | BMD at the hip and spine ([1]; daily subcutaneous, ref [14]) | incidence of vertebral and non-vertebral fractures ([1]; daily subcutaneous, ref [14]) | calcemic effect vs TPTD ([1]; human, in vivo, sc) | bone formation and resorption markers ([1]; ref [14]) | bone formation and resorption markers vs TPTD ([1]; ref [14]) | bone formation marker [1, 2] | bone resorption marker vs TPTD [1, 2] | cAMP accumulation and PKC activation (cAMP and PKC) | BMD vs antiresorptive agents such as bisphosphonates (osteoporosis; daily or weekly subcutaneous) | effect on the hip (osteoporosis; daily or weekly subcutaneous) | blood calcium (osteoporosis; in vivo) | bone formation related to PTH1R signaling (osteoblasts; intermittent treatment, osteoblasts, ref [18]) | OPG expression (osteoblasts; ref [9]) | RANKL and M-CSF expression (osteoblasts; ref [9]) | IGF-1 expression (osteoblasts; ref [10])
[Glu^22,25, Leu^23,28,31, Aib^29, Lys^26,30] human PTHrP(1–34)–NH2 [Abaloparatide] | robust BMD increases | reduced incidence | reduced as compared with TPTD | increased both bone formation and resorption | attenuated as compared with TPTD | increased | less stimulation of the bone resorption marker than observed for TPTD |  |  |  |  |  |  |  | 
human PTH(1–34) [Teriparatide] |  |  |  |  |  |  |  | stimulated both cAMP and PKC | greater than antiresorptive agents | modest | mildly increased | enhanced | decreases | increases | enhancement
